# Test results: patent US9566265B2, “Carbazole compounds and therapeutic uses of the compounds” (Incuron, LLC, priority 2008, dated 2017)
# Read-outs that look alike come from different tables or passages of the source.
# Columns and labels:
# HB 101 E. coli = test: antibacterial cytotoxicity assay, gram(−) bacteria (OD600); format: cell-based; settings: 48 hours, over a range of potencies, FIG. 13A
# bacteria = test: antibacterial cytotoxicity assay, comparison with ampicillin control; format: cell-based
# Procedure: In particular, the effect of carbazole compounds of the present invention on gram positive (Bacillus subtilis) and gram negative (DH5-α) bacteria was determined by the following procedure, and is summarized in FIGS. 13A and 13B.
# Each library chemical to be tested requires 2 rows of a 96-well plate, thus 4 chemicals (e.g. W, X, Y, Z) can be tested in one plate simultaneously. In addition to test chemicals, each plate should include positive and negative controls. As positive control, ampicillin is used at 100 μg/ml. As a negative control, DMSO is used in an amount equal to the highest volume of test compound used (˜0.25% DMSO for 50 μM).
# Besides a positive control added in one concentration on each plate, the positive control of ampicillin is added to each assay run in a full concentration range (3 fold dilutions) to ensure proper and robust assay performance (estimated by comparison of dose response curves among runs).
# The average OD600 nm of the test compound solutions are compared to that of the DMSO control by dividing the average OD600 nm of the test solution by that of the DMSO control and multiplying by 100 to produce the % DMSO control (i.e. % cytotoxicity). The % DMSO control is plotted vs compound concentration to generate sigmoid shaped curves. After three runs are complete, the raw data for all three runs is used for IC50 calculations.
# Bacillus subtilis = test: antibacterial cytotoxicity assay, gram(+) bacteria (OD600); format: cell-based; settings: B. subtilis, 48 hours, over a range of potencies; FIG. 13B
# Procedure: In vitro test to evaluate the effect of carbazole compounds on gram(-) and gram(+) bacteria. Two days prior to the start of the cytotoxicity assay, inoculate DH5-α and B. subtilis into 1 ml of corresponding media from glycerol stocks. Allow to grow during the course of the day at 37° C. with shaking. Streak each bacteria on the appropriate agar plates using a sterile inoculation loop and allow to grow overnight at 37° C. in the bacteria incubator. Using a sterile inoculation loop, pick a single colony of bacteria and inoculate 5 ml of the corresponding media in a 14 ml snap cap tube. Grow overnight ( 16 h) at 37° C. with shaking. […] Dilute 5 ml cultures of DH5-α and B. subtilis to an OD600 nm of 0.002, which corresponds to about 2×10^6 cells/ml in a volume sufficient for the experiment (dependent on the number of plates). Plate out 50 μl into each well of X 96-well plates (X=# plates needed for a given experiment). […] Chemicals for testing are prepared by dilution of stock solutions in LB Broth or Nutrient Broth for DH5-α and B. subtilis studies, respectively. Cells are treated with the final chemical concentrations presented in the scheme below (Table 2). Stock solutions are made up in DMSO. […] However, this concentration is dependent on the solubility of a given chemical and actual stock concentrations must be noted at time of experiment. Each library chemical to be tested requires 2 rows of a 96-well plate, thus 4 chemicals ([…]) can be tested in one plate simultaneously. In addition to test chemicals, each plate should include positive and negative controls. As positive control, ampicillin is used at 100 μg/ml. […] Dilutions of chemicals to be added to the plate are made up as 2× concentrations in appropriate bacteria media and added to corresponding wells in a volume of 50 μl. […] This process is repeated until all 10 2× doses are prepared. […] Following the addition of carbazole compounds to 96-well plates containing bacteria, plates are transferred to the 37° C. bacteria incubator for 48 hours. After the incubation, the OD600 mm for each well of the 96-well plates will be measured. […] The % DMSO control is plotted vs compound concentration to generate sigmoid shaped curves. After three runs are complete, the raw data for all three runs is used for IC50 calculations.
# p53 = p53 activation assay, p53 responsive luciferase reporter cell line; format: cell-based, human; settings: for EC50: Homo sapiens
# Procedure: The potency of a present carbazole compound is determined by measuring an ability of the compound to inhibit NF-κB activity or to activate p53. […] Theoretically, such assays of the dose-response effect of activator compounds can be described as a sigmoidal curve expressing a degree of activation as a function of concentration. The curve also theoretically passes through a point at which the concentration is sufficient to increase activity to a level that is 50% that of the difference between a baseline and the maximal activity in the assay. […] Determination of an EC50 value is made using conventional biochemical (acellular) assay techniques or cell-based assay techniques.
# The potency of a carbazole compound is determined by measuring an ability of the compound to activate p53.
# The p53 activation assay for determination of the EC50 value was performed as follows:
# HT1080-L (human fibrosarcoma cells with ConALuc reporter)
# RCC45ConALuc (human renal cell carcinoma cell line with ConALuc reporter)
# 1. Two types of standard cells were used, either HT1080-L or RCC45ConALuc cells. Both cell lines stably express a p53 responsive luciferase reporter construct.
# 2. HT1080-L cells were grown in DMEM medium containing 10% FBS. RCC45ConALuc cells were grown in RPMI medium containing 10% FBS (Pen/Strep can be added to a final concentration of 1%, if desired). Both cell lines were grown in a humidified incubator at 37° C. with 5% CO2. For normal culturing, both cell lines were split using 1× trypsin-EDTA at a ratio of 1:20 for HT1080-L and 1:5 for RCC45ConALuc cells every 3-4 days (when cells are 80-90% confluent).
# 3. A day before the experiment, the cells are trypsinized for about 5 minutes in 1× tripsin/EDTA solution in 37° C. incubator and plated in 96 well plates. HT1080-L cells were seeded at a density of 1×10^4/well in standard DMEM medium in a volume of 50 μl. RCC45ConALuc were seeded at a density of 2×10^4/well in the volume of 50 uL in standard RPMI medium.
# 4. The next day, various carbazole compounds were prepared by dilution of stock solutions in standard DMEM medium such that the cells were treated with the final chemical concentrations in Table 1 below. Stock solutions were made up in DMSO. Typically, chemicals were made up as 20 mM stock solutions.
# 5. Each tested compound used two rows of a 96-well plate, thus four compounds (e.g., W, X, Y, Z) were tested in one plate simultaneously. In addition to test compounds, each plate included positive and negative controls. As positive control, 9aa was used at a dose of 3 μM. As a negative control, DMSO was used in final concentration 0.1%.
# 1. Dilutions of chemicals added to the plate were made up as 2× concentrations in standard DMEM and added to corresponding well in a volume of 50 μl.
# 2. Chemicals were diluted in standard DMEM by two time serial dilutions starting from 40 μM (2× of highest concentration, e.g., 20 μM). For one cell line, the minimum volume was 125 μL of 2× working solution of chemical of each concentration in standard DMEM.
# 4. Sixteen hours following compound addition, all wells with the highest concentrations of compounds are checked microscopically for the presence of toxic effect, because death of cells caused by compounds may not allow detecting luciferase activity. If cytotoxocity is evident, other doses of the same compounds were checked for the presence of toxicity. The lowest dose causing toxic effect was recorded.
# 5. After microscopic examination, 15 μl of Bright Glo luciferase assay system were added to each well and after 5 min incubation at RT, the plates were read on a 96 well plate luminometer with a measurement time of 0.1 sec. A shaking step was included before measurement.
# 6. The folds of luciferase activation for each concentration of each chemical were calculated by dividing the detected luciferase activity at each chemical concentration by the average of the luciferase activity for the DMSO control on the same plate.
# [1] = tested on: Plasmodium falciparum (strain D10); test: Plasmodium falciparum in vitro culture, infected erythrocytes; format: cell-based; settings: tested at 29, 57, 143 nM or 143 nM only; FIG. 12
# Procedure: In particular, the effect of carbazole compounds on the malaria parasite was tested by culturing Plasmodium falciparum (strain D10) in vitro in the presence or absence of test compounds.
# In each experiment, 1000 erythrocytes were assessed microscopically to determine the number of infected cells.
# in vivo = settings: nude, mouse, po
# Procedure: Drug doses and schedule. […] Treatment was initiated 7 days after tumor transplantation when the tumors reached 150-200 mg. The mice in the control group received the vehicle (0.2% hydroxypropylmethylcellulose) at 200 μl per 20 g mouse body weight (same as the treatment groups). Five mice were used for each experimental group with 10 tumors (1 tumor each in the left and right side flanks).
# Maximum Tolerated Dose (MTD) and toxicity evaluation. […] The kinetics of drug-induced toxicities (body weight loss, diarrhea, and lethality) were determined daily for the first 10 days after treatment and every two days thereafter.
# [2] = tested on: Caki1 human renal cell carcinoma cells; test: Caki1 renal cell carcinoma xenograft efficacy test
# Procedure: In an efficacy test using these three compounds, athymic nude mice were inoculated subcutaneously with a suspension of Caki1 human renal cell carcinoma cells into both rear flanks. When at least one tumor in a mouse reached 20-50 mm^3, treatment was commenced. […] As a positive control, one group was treated with 40 mg/kg Sunitinib, an approved drug for the treatment of renal cell carcinoma. Treatment was given for 4 weeks on a 5 day on/2 day off schedule. After treatment was completed, mice were monitored for an additional 4 weeks to determine how quickly tumor growth returned to normal.
# [3] = tested on: HCT-116, DLD1, Caki1 and MDA-MB-231 tumors; test: various human tumour xenografts sc; format: in vivo, nude or SCID mice; settings: tumor cells inoculated as a cell suspension
# Procedure: (§1) In this study, the antitumor effect and toxicity of the three carbazoles against HCT-8 and HT29 colon cancer tumors were compared with treatment beginning when the tumor size reached 150-200 mg (about 7 days after tumor transplantation).
# [4] = tested on: human HCT-8 ileocecal adenocarcinoma xenografts
# Procedure: as §1
# (§2) Eight to twelve-week-old female athymic nude mice (nu/nu, body weight 22-25 g) were obtained from Harlan Sprague Dawley Inc. (Indianapolis, Ind.) and maintained at five mice/cage with water and food ad libitum according to an institutionally approved animal protocol.
# (§3) Human ileocecal adenocarcinoma HCT-8 and colon adenocarcinoma HT-29 xenografts were used. The xenografts were initially established by injecting s.c 10^6 cultured cells and tumors were passed several generations by transplanting about 50 mg non-necrotic tumor (2-3 pieces) via a trocar from the passage tumors when the tumors reach to 1-1.5 g.
# (§4) Treatment was initiated 7 days after tumor transplantation when the tumors reached 150-200 mg. The mice in the control group received the vehicle (0.2% hydroxypropylmethylcellulose) at 200 μl per 20 g mouse body weight (same as the treatment groups). Five mice were used for each experimental group with 10 tumors (1 tumor each in the left and right side flanks).
# (§5) Two axes (mm) of tumor (L, longest axis; W, shortest axis) were measured with the aid of a Vernier caliper. Tumor weight (mg) was estimated using a formula: tumor weight=½ (L×W2). Tumor measurements were taken daily at the same time as drug treatment and 3-4 times a week of post therapy.
# (§6) The kinetics of drug-induced toxicities (body weight loss, diarrhea, and lethality) were determined daily for the first 10 days after treatment and every two days thereafter.
# (§7) Antitumor activity was assessed by maximum tumor growth inhibition (MTRI) which is the mean tumor weight of treated group (MTWTG) compared with untreated control group (MTWCG) at the same time point (MTRI=MTWTG−MTWCG)÷MTWCG×100%). The tumor doubling time (TDT) was defined as the mean time for the tumor to reach twice its initial weight. Tumor response was expressed as partial tumor response (PR) when tumor weight was reduced at least 50% of the initial tumor size and complete tumor response (CR) was defined as the inability to detect tumor upon palpation at the initial site of tumor appearance.
# [5] = tested on: human HT-29 colon adenocarcinoma xenografts
# Procedure: as §1, §2, §3, §4, §5, §6, §7
# Bloodstream T. brucei = test: T. brucei bloodstream form in vitro killing; format: cell-based, Trypanosoma brucei
# Procedure: Preliminary T. brucei inactivation experiments were performed in vitro. The life cycle of T. brucei involves a “procyclic” developmental stage in a tsetse fly, and a “bloodstream” form in humans. All studies were performed with the bloodstream stage of the parasite, because it is the disease-causing developmental stage.
# Suramin, a conventional anti-HAT drug, was used as a positive control.
# Bloodstream T. brucei was seeded (3×10^3 cells/mL) in 24-well (500 uL of the media per well) plate. […] Control cultures received equal volumes of DMSO.
# γH2AX = γH2AX staining (Table I); format: cell-based
# Chk1/2 = Chk1/2 phosphorylation (Table I); format: cell-based
# ATM/ATR = ATM/ATR activation (Table I); format: cell-based
# Topo II = Topo II inhibition in vitro (Table I); format: biochemical
# [6] = 16 h, HT1080-L or RCC45ConALuc reporter cells, 16 h, read-out: EC50 value (p53 activation)
# [7] = p.o. at MTD, 5 days on/2 days off per week, Example 15 5, Example 7 30, Example 13 25 mg/kg/d
smiles,measurement,setting,value
CC(C)NCCn1c2ccc3c(c2c2c4c(ccc21)C(=O)CC4)CCC3=O [Example 17],antibacterial effect,HB 101 E. coli,antibacterial effect
same,effectiveness against bacteria compared with the ampicillin control,bacteria,more effective
same,antibacterial effect,Bacillus subtilis,antibacterial effect
same,EC50,p53; [6],0.04 µM
CCNCCCn1c2ccc3c(c2c2c4c(ccc21)C(=O)CC4)CCC3=O.Cl [Example 18],antibacterial effect,HB 101 E. coli,antibacterial effect
same,"anti-malarial activity, parasitemia reduction",[1],anti-malarial activity comparable to quinacrine
same,antibacterial effect,Bacillus subtilis,antibacterial effect
same,EC50,p53; [6],0.09 µM
same,EC50,"p53; Table 3, test compounds of the malaria experiment, read-out: EC50, μM (p53 activation assay)",0.09 µM
CCCNCCCn1c2ccc(C(C)=O)cc2c2c3c(ccc21)C(=O)CC3 [Example 13],antibacterial effect,HB 101 E. coli,antibacterial effect
same,MTD at 4 weeks,in vivo,25 mg/kg/day
same,tumor growth inhibition compared to the vehicle control,"[2]; Day 24 (end of treatment), oral gavage 5 day on/2 day off, Example 7 30, Example 15 5, Example 13 25, Sunitinib 40 mg/kg",62%
same,side effects,"[2]; oral, 4 weeks 5 day on/2 day off",severest side effects
same,antibacterial effect,Bacillus subtilis,antibacterial effect
same,antitumor efficacy,[3],antitumor efficacy
same,Toxicity (%) MWL,"[4]; mouse, in vivo",8.5 ± 2.9%
same,Antitumor Activity MTGI (%),[4]; [7],35.7 ± 20.0%
same,Toxicity (%) lethality,[4]; same,0%
same,CR (%),"[4]; same, complete tumor response",0%
same,PR (%),"[4]; same, partial tumor response",0%
same,Antitumor Activity TDT,"[4]; same, tumor doubling time",5.6 ± 1.2 days
same,delay of tumor growth compared to the vehicle control (double time 4.8 days),[4]; text b677,17%
same,delay of tumor growth (control double time 7.8 days),[5],50%
same,inhibitory rate / tumor growth inhibition,[5],48%
same,Antitumor Activity MTGI (%),[5]; [7],47.6 ± 6.7%
same,Toxicity (%) lethality,[5]; same,0%
same,CR (%),"[5]; same, complete tumor response",0%
same,Toxicity (%) MWL,"[5]; same, maximum weight loss of pretreatment body weight",4.4 ± 2.2%
same,PR (%),"[5]; same, partial tumor response",0%
same,Antitumor Activity TDT,"[5]; same, tumor doubling time",11.7 ± 1.2 days
same,elimination of parasites,"Bloodstream T. brucei; 48 hrs, up to 200 nM Example 7, 20 nM Example 13, 3 nM Example 15",completely eliminated T. brucei
same,IC50,"Bloodstream T. brucei; Trypanosoma brucei, read-out: IC50 (concentration that killed 50% of the parasites), bloodstream stage, 48 hrs of culture",6 to 11 nM
same,EC50,p53; [6],0.22 µM
"CCN(CC)CCn1c2ccc3c(c2c2c4c(ccc21)C(=O)CC4)CCC3=O.Cl [Example 3, 6-[2-(Diethylamino)ethyl]-10,11-dihydro-1H-dicyclopenta[c,g]carbazole-3,9(2H,6H)-dione hydrochloride]",Ames test,Ames test,negative
same,γH2AX staining,γH2AX,no
same,Chk1/2 phospho,Chk1/2,no
same,ATM/ATR activation,ATM/ATR,no
same,Topo II inhibition in vitro,Topo II,ligation
"CC(=O)c1ccc2c(c1)c1cc(C(C)=O)ccc1n2CCC1CCCN1C (stereo not drawn) [Example 2, 1,1′-{9-[2-(1-Methylpyrrolidin-2-yl)ethyl]-9H-carbazole-3,6-diyl}diethanone]","anti-malarial activity, parasitemia reduction",[1],anti-malarial activity comparable to quinacrine
same,EC50,"p53; read-out: EC50, μM (p53 activation assay)",0.64 µM
same,EC50,"p53; HT1080-L or RCC45ConALuc reporter cells, 16 h, read-out: EC50 value (p53 activation)",0.64 µM
same,"p53 activation, active or inactive carbazole","p53; structural analysis, FIGS. 6 and 7",active
